Biological target: T1, human topoisomerase II (Homo sapiens, UniProt P11388)
T1 construct: purchased TopoGEN, Port Orange, FL
Assay: hTopo II decatenation assay
Assay type: biochemical
Details: 10 and 50 µM, 2 h at 37 °C, kDNA substrate
Method: In Figure 4, only the results obtained at 50 μM concentration are reported (the same result was obtained at 10 μM) and as visible; under RANHC-V and -VI exposure, two bands related to the decatenation products at the bottom of the gel were detected (Figure 4, lanes 5 and 6), similarly to the CTRL reaction (Figure 4, lane 4).
Similarly, hTopoII decatenation assays were carried out incubating the kinetoplast DNA (kDNA) substrate with the hTopoII (TopoGEN, Port Orange, FL) and compounds RANHC-V and -VI or DMSO (CTRL) following the manufacturer’s procedures (TopoGEN, Port Orange, FL, USA), with some changes.
Figure 4 Human topoisomerase II decatenation assay. hTopo II was incubated with the vehicle alone (CTRL) or with the tested complexes RANHC-V and -VI at 50 µM for 2 h at 37 °C, using the kinetoplast DNA (kDNA) as the substrate. 1, linear DNA marker; 2, decatenated DNA marker; 3, kinetoplast DNA; 4, CTRL (DMSO); 5 and 6, Ru-NHC complexes RANHC-V and -VI (50 µM), respectively. The image is representative of three separate experiments.

T1 sequence (P11388 whole entry): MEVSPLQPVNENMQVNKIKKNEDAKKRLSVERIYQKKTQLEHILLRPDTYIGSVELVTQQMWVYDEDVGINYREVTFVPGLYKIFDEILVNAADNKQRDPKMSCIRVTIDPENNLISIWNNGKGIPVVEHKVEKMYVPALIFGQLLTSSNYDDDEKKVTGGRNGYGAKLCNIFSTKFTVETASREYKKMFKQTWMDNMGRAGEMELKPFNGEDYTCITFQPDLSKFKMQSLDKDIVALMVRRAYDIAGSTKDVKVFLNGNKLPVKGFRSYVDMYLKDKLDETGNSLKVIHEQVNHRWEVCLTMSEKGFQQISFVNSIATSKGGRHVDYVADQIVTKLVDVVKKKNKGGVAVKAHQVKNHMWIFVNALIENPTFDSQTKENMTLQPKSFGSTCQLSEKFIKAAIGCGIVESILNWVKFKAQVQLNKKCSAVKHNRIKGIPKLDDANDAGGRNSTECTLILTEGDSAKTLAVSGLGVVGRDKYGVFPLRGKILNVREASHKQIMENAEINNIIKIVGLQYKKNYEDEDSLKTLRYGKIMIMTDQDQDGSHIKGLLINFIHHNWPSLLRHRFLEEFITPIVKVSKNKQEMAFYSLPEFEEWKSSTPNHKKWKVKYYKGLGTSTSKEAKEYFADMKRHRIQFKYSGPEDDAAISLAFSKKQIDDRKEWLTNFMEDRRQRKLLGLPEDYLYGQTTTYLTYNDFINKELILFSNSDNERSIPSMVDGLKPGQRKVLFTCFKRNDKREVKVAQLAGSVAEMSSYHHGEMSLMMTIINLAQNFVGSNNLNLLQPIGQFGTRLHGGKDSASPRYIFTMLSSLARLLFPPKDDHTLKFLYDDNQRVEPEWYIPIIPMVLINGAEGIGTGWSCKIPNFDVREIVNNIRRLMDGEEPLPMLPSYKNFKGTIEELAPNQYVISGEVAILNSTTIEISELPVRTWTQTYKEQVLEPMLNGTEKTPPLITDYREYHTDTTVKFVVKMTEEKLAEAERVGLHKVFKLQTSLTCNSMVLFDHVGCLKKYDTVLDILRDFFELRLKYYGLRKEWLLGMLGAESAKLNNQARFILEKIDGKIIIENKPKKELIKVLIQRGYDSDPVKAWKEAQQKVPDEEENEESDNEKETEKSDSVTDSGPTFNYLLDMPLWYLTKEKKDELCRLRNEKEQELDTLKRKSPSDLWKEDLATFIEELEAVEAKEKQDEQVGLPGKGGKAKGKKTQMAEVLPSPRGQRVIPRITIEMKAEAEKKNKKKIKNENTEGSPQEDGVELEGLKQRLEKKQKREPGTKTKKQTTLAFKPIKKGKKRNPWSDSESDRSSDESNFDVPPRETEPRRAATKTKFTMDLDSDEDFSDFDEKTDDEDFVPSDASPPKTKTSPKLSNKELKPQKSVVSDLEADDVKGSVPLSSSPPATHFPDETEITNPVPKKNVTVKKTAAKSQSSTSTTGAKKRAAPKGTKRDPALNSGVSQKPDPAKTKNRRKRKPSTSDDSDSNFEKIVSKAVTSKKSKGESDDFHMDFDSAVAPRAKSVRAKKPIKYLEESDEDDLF

| inhibition of hTopo II activity | SMILES |
| --- | --- |
| absence of any inhibitory activity | COC(Cn1[c](=[Ru]([Cl])[Cl])n(C)c2ccccc21)c1ccccc1.Cc1ccc(C(C)C)cc1 (centres unmarked) [RANHC-VI] |
| absence of any inhibitory activity | COC(Cn1c(Cl)c(Cl)n(C)[c]1=[Ru]([Cl])[Cl])c1ccccc1.Cc1ccc(C(C)C)cc1 (centres unmarked) [RANHC-V] |

From PMC10135378, “Synthesis of Novel N-Heterocyclic Carbene-Ruthenium (II) Complexes, “Precious” Tools with Antibacterial, Anticancer and Antioxidant Properties” (Antibiotics, 2023)
